Data published in patent publication US20210253575A1, “PYRROLIDINE AMINE COMPOUNDS FOR THE TREATMENT OF AUTOIMMUNE DISEASE” (Hoffmann-La Roche Inc., priority 2018, published 2021).

The molecules below were run against T1, human TLR7 (Homo sapiens, UniProt Q9NYK1) (assay: HEK293-Blue-hTLR-7 cells assay (SEAP reporter, R848 stimulation)). Settings: HEK293-Blue-hTLR7 cells, R848 ligand, 20 hrs incubation.
T1 sequence (Q9NYK1 27-1049): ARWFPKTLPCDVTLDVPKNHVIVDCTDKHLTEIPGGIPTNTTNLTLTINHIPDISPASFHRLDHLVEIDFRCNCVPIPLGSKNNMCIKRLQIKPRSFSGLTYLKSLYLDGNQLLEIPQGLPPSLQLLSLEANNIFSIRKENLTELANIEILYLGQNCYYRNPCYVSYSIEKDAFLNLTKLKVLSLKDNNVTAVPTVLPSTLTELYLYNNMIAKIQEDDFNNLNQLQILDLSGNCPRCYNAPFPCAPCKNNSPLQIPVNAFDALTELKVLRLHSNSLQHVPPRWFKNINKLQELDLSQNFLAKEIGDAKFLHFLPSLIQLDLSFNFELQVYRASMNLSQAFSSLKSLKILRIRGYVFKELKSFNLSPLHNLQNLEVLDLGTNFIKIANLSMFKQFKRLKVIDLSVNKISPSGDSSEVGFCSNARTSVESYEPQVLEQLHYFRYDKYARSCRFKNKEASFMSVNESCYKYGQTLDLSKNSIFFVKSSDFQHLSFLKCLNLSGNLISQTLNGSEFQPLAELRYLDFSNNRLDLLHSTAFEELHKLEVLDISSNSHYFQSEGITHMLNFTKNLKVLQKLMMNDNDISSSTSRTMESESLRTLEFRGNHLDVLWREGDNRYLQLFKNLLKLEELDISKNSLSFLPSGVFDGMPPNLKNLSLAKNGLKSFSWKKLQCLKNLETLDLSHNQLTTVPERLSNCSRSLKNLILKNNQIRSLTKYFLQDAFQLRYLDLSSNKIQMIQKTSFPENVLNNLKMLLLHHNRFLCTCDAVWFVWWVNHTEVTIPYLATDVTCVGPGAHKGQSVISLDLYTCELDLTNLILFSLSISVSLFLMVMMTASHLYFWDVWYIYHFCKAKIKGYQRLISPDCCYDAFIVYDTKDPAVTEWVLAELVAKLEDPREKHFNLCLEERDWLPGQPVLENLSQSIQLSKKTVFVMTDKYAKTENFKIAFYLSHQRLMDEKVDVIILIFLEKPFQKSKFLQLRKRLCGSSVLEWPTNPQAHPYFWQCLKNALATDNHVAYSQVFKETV
Assay type: cell-based
Method: The following tests were carried out in order to determine the activity of the compounds of formula (I) in HEK293-Blue-hTLR-7/8/9 cells assay.
HEK293-Blue-hTLR-7 Cells Assay:
A stable HEK293-Blue-hTLR-7 cell line was purchased from InvivoGen (Cat. #: hkb-htlr7, San Diego, Calif., USA). These cells were originally designed for studying the stimulation of human TLR7 by monitoring the activation of NF-κB. A SEAP (secreted embryonic alkaline phosphatase) reporter gene was placed under the control of the IFN-β minimal promoter fused to five NF-κB and AP-1-binding sites. The SEAP was induced by activating NF-κB and AP-1 via stimulating HEK-Blue hTLR7 cells with TLR7 ligands. Therefore the reporter expression was declined by TLR7 antagonist under the stimulation of a ligand, such as R848 (Resiquimod), for incubation of 20 hrs. The cell culture supernatant SEAP reporter activity was determined using QUANTI-Blue™ kit (Cat. #: rep-qb1, Invivogen, San Diego, Ca, USA) at a wavelength of 640 nm, a detection medium that turns purple or blue in the presence of alkaline phosphatase.
HEK293-Blue-hTLR7 cells were incubated at a density of 250,000-450,000 cells/mL in a volume of 170 μL in a 96-well plate in Dulbecco's Modified Eagle's medium (DMEM) containing 4.5 g/L glucose, 50 U/mL penicillin, […], […], 2 mM L-glutamine, 10% (v/v) heat-inactivated fetal bovine serum with addition of 20 μL test compound in a serial dilution in the presence of final DMSO at 1% and 10 μL of 20 uM R848 in above DMEM, perform incubation under 37° C. in a CO2 incubator for 20 hrs. Then 20 μL of the supernatant from each well was incubated with 180 μL Quanti-blue substrate solution at 37° C. for 2 hrs and the absorbance was read at 620-655 nm using a spectrophotometer. The signalling pathway that TLR7 activation leads to downstream NF-κB activation has been widely accepted, and therefore similar reporter assay was modified for evaluating TLR7 antagonist.

In order of rising IC50:
1. N#Cc1ccc(N2C[C@H](CN3CCC4(CCNCC4)CC3)[C@@H](C(F)(F)F)C2)c2nccnc12 [Example 1, 8-[(3S,4R)-3-(3,9-diazaspiro[5.5]undecan-3-ylmethyl)-4-(trifluoromethyl)pyrrolidin-1-yl]quinoxaline-5-carbonitrile]  5 nM
2. CC1(N)CCN(C[C@H]2CN(c3ccc(C#N)c4nccnc34)C[C@@H]2C(F)(F)F)CC1 [Example 12, 8-[(3S,4R)-3-[(4-amino-4-methyl-1-piperidyl)methyl]-4-(trifluoromethyl)pyrrolidin-1-yl]quinoxaline-5-carbonitrile]  15 nM
3. N#Cc1ccc(N2C[C@H](CN3CCC4(CCNCC4)CC3)[C@@H](C(F)(F)F)C2)c2cccnc12 [Example 2, 5-[(3S,4R)-3-(3,9-diazaspiro[5.5]undecan-3-ylmethyl)-4-(trifluoromethyl)pyrrolidin-1-yl]quinoline-8-carbonitrile]  20 nM
4. N#Cc1ccc(N2C[C@H](CN3CCC4(CCNC4)C3)[C@@H](C(F)(F)F)C2)c2nccnc12 (stereo partly drawn) [Example 5, 8-[(3S,4R)-3-(2,7-diazaspiro[4.4]nonan-2-ylmethyl)-4-(trifluoromethyl)pyrrolidin-1-yl]quinoxaline-5-carbonitrile]  36 nM
5. N#Cc1ccc(N2C[C@H](CN3CCC4(CCNC4)CC3)[C@@H](C(F)(F)F)C2)c2nccnc12 [Example 14, 8-[(3S,4R)-3-(2,8-Diazaspiro[4.5]decan-8-ylmethyl)-4-(trifluoromethyl)pyrrolidin-1-yl]quinoxaline-5-carbonitrile]  43 nM
6. N#Cc1ccc(N2C[C@H](CN3CCC4(CCCNC4)C3)[C@@H](C(F)(F)F)C2)c2cccnc12 (stereo partly drawn) [Example 6, 5-[(3S,7R)-3-(2,9-diazaspiro[4.5]decan-2-ylmethyl)-4-(trifluoromethyl)pyrrolidin-1-yl]quinoline-8-carbonitrile]  48 nM
7. CC1(N)CCN(CC2CN(c3ccc(C#N)c4nccnc34)CC23CC3)CC1 (centres unmarked) [Example 7, 8-[7-[(4-Amino-4-methyl-1-piperidyl)methyl]-5-azaspiro[2.4]heptan-5-yl]quinoxaline-5-carbonitrile]  54 nM
8. N#Cc1ccc(N2C[C@H](CN3CC4(CCCNC4)C3)[C@@H](C(F)(F)F)C2)c2cccnc12 [Example 8, 5-[(3S,7R)-3-(2,8-diazaspiro[3.5]nonan-2-ylmethyl)-4-(trifluoromethyl)pyrrolidin-1-yl]quinoline-8-carbonitrile]  57 nM
9. N#Cc1ccc(N2CC(CN3CCC(N)CC3)C3(CC3)C2)c2nccnc12 (single isomer, unassigned) [Example 68A, 8-[7-[(4-Amino-1-piperidyl)methyl]-5-azaspiro[2.4]heptan-5-yl]quinoxaline-5-carbonitrile]  61 nM
10. N#Cc1ccc(N2C[C@H](CN3CCC4(CCNC4)C3)[C@@H](C(F)(F)F)C2)c2cccnc12 (stereo partly drawn) [Example 9, 5-[(3S,4R)-3-(2,7-diazaspiro[4.4]nonan-2-ylmethyl)-4-(trifluoromethyl)pyrrolidin-1-yl]quinoline-8-carbonitrile]  61 nM
11. N#Cc1ccc(N2C[C@H](CN3CCC(N4CCCCC4)CC3)[C@@H](C(F)(F)F)C2)c2cccnc12 [Example 10, 5-[(3S,4R)-3-[[4-(1-piperidyl)-1-piperidyl]methyl]-4-(trifluoromethyl)pyrrolidin-1-yl]quinoline-8-carbonitrile]  69 nM
12. N#Cc1ccc(N2CC(CN3CCC(N4CCCCC4)CC3)C3(CC3)C2)c2nccnc12 (centres unmarked) [Example 11, 8-[7-[[4-(1-Piperidyl)-1-piperidyl]methyl]-5-azaspiro[2.4]heptan-5-yl]quinoxaline-5-carbonitrile]  74 nM
13. N#Cc1ccc(N2CC(CN3CCC4(CCCNC4)CC3)C3(CC3)C2)c2nccnc12 (centres unmarked) [Example 13, 8-[7-(2,9-Diazaspiro[5.5]undecan-9-ylmethyl)-5-azaspiro[2.4]heptan-5-yl]quinoxaline-5-carbonitrile]  102 nM
14. CC[C@@H]1CN(c2ccc(C#N)c3ncccc23)C[C@H]1CN1CCC2(CCNCC2)CC1 (relative stereo) [Example 15, 5-[Trans-3-(3,9-diazaspiro[5.5]undecan-3-ylmethyl)-4-ethyl-pyrrolidin-1-yl]quinoline-8-carbonitrile]  107 nM
15. FC(F)(F)c1ccc(N2C[C@@H](CN3CCC4(CCNC4)C3)[C@H](C(F)(F)F)C2)c2nccnc12 (relative stereo) [Example 19, 5-[Trans-3-(2,7-diazaspiro[4.4]nonan-2-ylmethyl)-4-(trifluoromethyl)pyrrolidin-1-yl]-8-(trifluoromethyl)quinoxaline]  142 nM
16. C[C@@H]1CN(c2ccc(C(F)(F)F)c3nccnc23)C[C@H]1CN1CCC2(CCNCC2)CC1 (relative stereo) [Example 21, 3-[[Trans-4-methyl-1-[8-(trifluoromethyl)quinoxalin-5-yl]pyrrolidin-3-yl]methyl]-3,9-diazaspiro[5.5]undecane]  189 nM
17. N#Cc1ccc(N2C[C@@H](CN3CCC4(CCNCC4)CC3)[C@H](C(F)F)C2)c2cccnc12 (relative stereo) [Example 27, 5-[Trans-3-(3,9-diazaspiro[5.5]undecan-3-ylmethyl)-4-(difluoromethyl)pyrrolidin-1-yl]quinoline-8-carbonitrile]  354 nM
18. N#Cc1ccc(N2C[C@@H](CN3CCC4(CCNCC4)CC3)[C@H](C3CC3)C2)c2cccnc12 (relative stereo) [Example 28, 5-[Trans-3-cyclopropyl-4-(3,9-diazaspiro[5.5]undecan-3-ylmethyl)pyrrolidin-1-yl]quinoline-8-carbonitrile]  355 nM
19. CC[C@@H]1CN(c2ccc(C#N)c3ncccc23)C[C@H]1CN1CCC2(CCNC2)C1 (relative stereo) [Example 29, 5-[Trans-3-(2,7-diazaspiro[4.4]nonan-2-ylmethyl)-4-ethyl-pyrrolidin-1-yl]quinoline-8-carbonitrile]  370 nM
20. C[C@@H]1CN(c2ccc(C(F)(F)F)c3nccnc23)C[C@H]1CN1CCC(N2CCCCC2)CC1 (relative stereo) [Example 33, 5-[Trans-3-methyl-4-[[4-(1-piperidyl)-1-piperidyl]methyl]pyrrolidin-1-yl]-8-(trifluoromethyl)quinoxaline]  432 nM
21. N#Cc1ccc(N2C[C@@H](CN3CCC4(CCNC4)C3)[C@H](C(F)F)C2)c2cccnc12 (relative stereo) [Example 34, 5-[Trans-3-(2,7-diazaspiro[4.4]nonan-2-ylmethyl)-4-(difluoromethyl)pyrrolidin-1-yl]quinoline-8-carbonitrile]  454 nM
22. CC(C)[C@@H]1CN(c2ccc(C#N)c3ncccc23)C[C@H]1CN1CCC2(CCNCC2)CC1 (relative stereo) [Example 36, 5-[Trans-3-(3,9-diazaspiro[5.5]undecan-3-ylmethyl)-4-isopropyl-pyrrolidin-1-yl]quinoline-8-carbonitrile]  471 nM
23. CC(C)[C@@H]1CN(c2ccc(C#N)c3ncccc23)C[C@H]1CN1CCC2(CCNC2)C1 (relative stereo) [Example 44, 5-[Trans-3-(2,7-diazaspiro[4.4]nonan-2-ylmethyl)-4-isopropyl-pyrrolidin-1-yl]quinoline-8-carbonitrile]  963 nM
